From US20150335558A1, “NERVE GROWTH INHIBITOR, CUTANEOUS-SENSORY-IRRITATION INHIBITOR, AND MARKER FOR CUTANEOUS-SENSORY-IRRITATION DETECTION” (HOYU CO., LTD., priority 2012, published 2015)

What was measured:
[1] = system: mast cell deficient mice (WBB6F1-W/W^V) and normal control mice (WBB6F1-+/+); experiment: Scratch bouts of mice after 10% sodium laurate application (Sample Experiment 2); assay type: in vivo, mouse; conditions: 10% SL aqueous solution 50 μL single application, 2 hrs. after application, both mast cell deficient and normal control mice
Experimental: Male mast cell deficient mice at ages of 7 to 8 weeks (WBB6F1-W/W^V mouse), purchased from Japan SLC, and normal control mice that are wild mice at ages of 7 to 8 weeks (WBB6F1-+/+mouse) were used. They were given solid feed under free water supply and subjected to preliminary rearing for 7 days or longer under a constant temperature/constant humidity environment with a temperature of 22±2° C., and a humidity of 55±10% before they were used in the test. The mice for use were subjected to the test at least 3 days after shearing/depilating of the rostral back. […] That is, a single mouse was put in each of the 4 divided sections of an acrylic box (13×9×35 cm) to be acclimated for at least 1 hr., and they were video recorded in an environment without any person to record their action. Then, by watching the video, the number of scratch bouts against the rostral back by the hind leg was counted. A series of scratching movements (movements that include scratching the rostal back, where the solution is applied, with the hind leg, then dropping the hind leg to the ground) was counted as 1 count, and the number of times scratching was performed in 60 mins. was counted by visual observation. […]

[2] = system: histamine and active HDC (53 kDa) in mouse epidermis and dermis; experiment: Histamine amount and HDC activation in ICR mouse skin after 10% sodium laurate (Sample Experiment 3); assay type: in vivo; conditions: ICR mice
Experimental: Male ICR mice at ages of 7 to 8 weeks, purchased from Japan SLC, were used. They were given solid feed under free water supply and subjected to preliminary rearing for 7 days or longer under a constant temperature/constant humidity environment with a temperature of 22±2° C., and a humidity of 55±10% before they were used in the test. The mice for use were subjected to the test at least 3 days after shearing/depilating of the rostral back. A 10% aqueous solution obtained by dissolving SL in distilled water was applied as a stimulating substance against the skin at 50 μL to the sheared/depilated rostral back of the mice mentioned above. Distilled water was applied to the solvent control group (Vehicle). Note concerning FIG. 5 and FIG. 6 to be described later that the mice that were not treated with the above SL aqueous solution or distilled water are called “NT (not treated).” The amount of histamine in skin was measured before applying a surfactant, 2 hrs. after application, and 24 hrs. after application (the time of application was set to 0 hr.). Skins were collected while the mice were under anesthesia after perfusion with a phosphate buffer solution (PBS) using the cardiac blood circulation system (punched out with a biopsy punch in a circular shape of a diameter of 18 mm). The amounts of histamine in the collected skins were measured. After the collected skins were immersed in PBS at 60° C. for 30 secs., they were separated into the epidermis and the dermis. Then, the amounts of histamine in the epidermis and the dermis were measured using the measurement kit. To measure the amount of histamine, tissues of both the epidermis and the dermis were pulverized to create tissue suspensions, which were subjected to centrifugation, then supernatants were collected to measure the amounts of histamine in the supernatants.

ICR mice = experiment: Scratch bouts of ICR mice after 10% SDS application (Sample Experiment 1-1); assay type: in vivo, mouse; conditions: ICR mice of 10% SDS group at Day 3, TRF 30 mg/kg oral, 30 mins. before observation, 60 mins. count
Experimental: The present Sample Experiment was conducted using ICR mice, and an anionic surfactant, namely, sodium dodecyl sulfate (SDS), was used as a stimulating substance to analyze the scratch bouts of mice. After SDS had been applied, terfenadine (TRF) was administered as an antihistamine to determine its effect on scratch bouts.
Male ICR mice at ages of 7 to 8 weeks, purchased from Japan SLC, were used. The mice were given solid feed under free water supply and subjected to preliminary rearing for 7 days or longer under a constant temperature/constant humidity environment with a temperature of 22±2° C., and a humidity of 55±10% before they were used in the test. The mice for use were used in the test at least 3 days after shearing/depilating the rostral back of each mouse. […]
The scratch bouts of mice were performed in view of the Kuraishi et al. report. That is, a single mouse was put in each chamber of the 4 divided sections in an acrylic box (13×9×35 cm) to be acclimated for at least an hour, and they were video recorded in an environment without any person for at least an hour a day from the day of applying the above 10% SDS aqueous solution (Day 0) to the 4th day after application (Day 4) to record their movement. Then, by watching the video, the number of scratch bouts against the rostral back by the hind leg was counted. […]

[3] = 2 hrs. after 10% SL application
[4] = 24 hrs. after 10% SL application

SMILES: CCCCCCCCCCCC(=O)[O-].[Na+] [SL, sodium laurate]
- scratch bouts of mice (number in 60 mins.) after stimulating substance [1]: clearly increased
- active HDC (53 kDa) in mouse epidermis [2, 3]: increased significantly
- histamine level in the epidermis [2, 3]: increased
- active HDC (53 kDa) in mouse epidermis [2, 4]: returned to the pre-application level
- histamine level in the epidermis [2, 4]: returned to the pre-application level
- histamine level of the dermis ([2]; before, 2 hrs. and 24 hrs. after 10% SL application): no substantial change was observed

SMILES: CC(C)(C)c1ccc(C(O)CCCN2CCC(C(O)(c3ccccc3)c3ccccc3)CC2)cc1 (stereo not shown) [TRF, terfenadine]
- scratch bouts of SDS-treated mice after TRF, After vs Before (ICR mice): effectively suppressed
